# According to ChEMBL document CHEMBL3832036, “Goodman and Gilman Ed. 12 | The Pharmaceutical Basis of Therapeutics| Table AII-I: Pharmacokinetic Data” (2011):
# Assays:
# Homo sapiens [1] = assay: Pharmacokinetic parameters for diffferent drugs or their active metabolite, following single oral or intravenous (IV) administration to subjects of different health conditions.; format: ADME, organism-based; design: dose 50 mg, dose 10 mg, route oral; settings: in vivo
# Homo sapiens [2] = assay: Pharmacokinetic parameters for different drugs, or their active metabolite following multiple oral or intravenous administration to subjects of varying health conditions.; format: ADME, organism-based; design: dose 30 mg, dose 135 mg, route oral; settings: in vivo
# [3] = iv, dosed compound id 67, dosed compound name AZATHIOPRINE, regimen Single dose, tissue Plasma
# [4] = po, dose 10 mg, dosed compound id 63, dosed compound name BACLOFEN, gender male, regimen Single dose, tissue Plasma
# [5] = po, dosed compound id 63, dosed compound name BACLOFEN, gender male, regimen Single dose, tissue Plasma
# [6] = po, dosed compound id 66, dosed compound name CHLORTHALIDONE, regimen Single dose, tissue Plasma
# [7] = po, dosed compound id 69, dosed compound name IRBESARTAN, gender male, regimen Single dose, tissue Plasma
structure (smiles),measurement,setting,value
Cn1cnc([N+](=O)[O-])c1Sc1ncnc2nc[nH]c12 [AZATHIOPRINE],CL,Homo sapiens [1]; [3],57 mL/min/kg
same,Vd,Homo sapiens [1]; [3],0.81 L/kg
same,t1/2,Homo sapiens [1]; [3],0.16 h
NCC(CC(=O)O)c1ccc(Cl)cc1 (configuration not stated) [BACLOFEN],Vd,"Homo sapiens [1]; other, dosed compound id 63, dosed compound name BACLOFEN, gender male, regimen Single dose, route intestinal infusion, tissue Plasma",0.81 L/kg
same,CL,"Homo sapiens [1]; other, dosed compound id 63, dosed compound name BACLOFEN, gender male, regimen Single dose, route intestinal infusion, tissue Urine",2.72 mL/min/kg
same,Tmax,Homo sapiens [1]; [4],1 h
same,t1/2,Homo sapiens [1]; [4],3.75 h
same,Cmax,Homo sapiens [1]; [5],160 ng/mL
same,F,Homo sapiens [1]; [5],70%
NS(=O)(=O)c1cc(C2(O)NC(=O)c3ccccc32)ccc1Cl (configuration not stated) [CHLORTHALIDONE],Excretion,"Homo sapiens [1]; po, at 50 mg, dosed compound id 66, dosed compound name CHLORTHALIDONE, regimen Single dose, tissue Urine",65%
same,Tmax,"Homo sapiens [1]; po, dose 50 mg, dosed compound id 66, dosed compound name CHLORTHALIDONE, regimen Single dose, tissue Plasma",13.8 h
same,t1/2,"Homo sapiens [1]; po, dosed compound id 66, dosed compound name CHLORTHALIDONE, regimen Single dose, tissue Blood",47 h
same,CL,Homo sapiens [1]; [6],0.04 mL/min/kg
same,Cmax,Homo sapiens [1]; [6],3700 ng/mL
same,F,Homo sapiens [1]; [6],64%
same,Vd,Homo sapiens [1]; [6],0.14 L/kg
CCCCC1=NC2(CCCC2)C(=O)N1Cc1ccc(-c2ccccc2-c2nnn[nH]2)cc1 [IRBESARTAN],Tmax,"Homo sapiens [1]; po, dose 50 mg, dosed compound id 69, dosed compound name IRBESARTAN, gender male, regimen Single dose, tissue Plasma",1.2 h
same,CL,Homo sapiens [1]; [7],2.12 mL/min/kg
same,Cmax,Homo sapiens [1]; [7],1300 ng/mL
same,Vd,Homo sapiens [1]; [7],2.9 L/kg
same,bioavailability,Homo sapiens [1]; [7],60 to 80%
same,t1/2,Homo sapiens [1]; [7],13 h
same,Excretion,"Homo sapiens [1]; po, dosed compound id 69, dosed compound name IRBESARTAN, gender male, regimen Single dose, tissue Urine",2.2%
Sc1ncnc2nc[nH]c12 [MERCAPTOPURINE ANHYDROUS],F,"Homo sapiens [1]; po, dosed compound id 621, dosed compound name AZATHIOPRINE, regimen Single dose, tissue Plasma",60%
same,Tmax,"Homo sapiens [2]; dose 135 mg, dosed compound id 621, dosed compound name AZATHIOPRINE, regimen Once daily, route oral, tissue Plasma",1 to 2 h
same,Cmax,"Homo sapiens [2]; dosed compound id 621, dosed compound name AZATHIOPRINE, regimen Once daily, tissue Plasma",20 to 90 ng/mL
C[C@]12C=CC(=O)C=C1CC[C@@H]1[C@@H]2[C@@H](O)C[C@@]2(C)[C@H]1CC[C@]2(O)C(=O)CO [PREDNISOLONE],CL,Homo sapiens [1]; po,1 mL/min/kg
same,Excretion,Homo sapiens [1]; po,26%
same,Vd,Homo sapiens [1]; po,0.42 L/kg
same,t1/2,Homo sapiens [1]; po,2.2 h
same,Cmax,Homo sapiens [2],458 ng/mL
same,Tmax,Homo sapiens [2],1.5 h
